Reference: patent US8518958B2, “Pyrido [2,3-D] pyrimidines and their use as kinase inhibitors” (Forma Therapeutics, Inc., priority 2006, dated 2013)

Columns and labels:
B-Raf delta1-415 = B-Raf delta1-415 (Homo sapiens, UniProt P15056); assay: B-Raf kinase inhibition (MAPH filter plate, 33P-ATP, MEK1 substrate); conditions: read-out: Biochemical IC50 B-Raf
Source text: We characterized the in vitro inhibitory activity against protein kinases of compounds of the present invention by determining their IC50 values (see Table 2).
Kinase: B-Raf delta1-415 (e.g., Upstate Cat. No. 14-530)
Reaction Temperature: room temperature
Assay Plate: 96 well U bottom plate (Greiner, 650161)
MultiScreen-PH Plate: 96 well MAPH Filter Plates (Millipore, MAPHNOB50)
Filter Washing Solution: 0.75% H3PO4
Szintilation Liquid: Supermix Liquid Szintillator (PerkinElmer, 1200-439)
Negative Control (C−): 100 mM EDTA, no Inhibitor
Positive Control (C+): no Inhibitor
Reaction Buffer: 20 mM Mops, pH 7.0 • 10 mM MgCl2 • 0.4 mM MnCl2 • 100 mM NaCl • 1 mM DTT • 0.01% NP40
Final Assay Concentrations:
Kinase: Kinase conc. yielding 50% substrate turnover as determined in titration experiment.
Adenosine 5′-[γ-^33P]triphosphate: 12.5 μCi/ml (Amersham Biosciences, BF1000)
Pipetting Sequence: • 1) Add 10 μl 4-fold concentrated substrate in 3-fold concentrated reaction buffer to each well of assay plate • 2) Add 10 μl 4-fold concentrated inhibitor in 4% DMSO in H2O to each well except to C− and C+ wells (starting point: final inhibitor concentration 10 μM; IC50 determination based on dilution series) • 3) Add 10 μl 4% DMSO in H2O to C− and C+ wells • 4) Add 10 μl 500 mM EDTA in H2O to C− wells • 5) Add 10 μl 50 μCi/ml adenosine 5′-[γ-^33P]triphosphate in H2O+4-fold cold ATP to each well • 6) Add 10 μl 4-fold concentrated kinase in reaction buffer to each well • 7) Incubate 1 hr at room temperature • 8) Add 10 μl 50 mM EDTA in H2O to each well except to C− wells • 9) Prepare MAPH plates by adding 200 μl 0.75% H3PO4 to each well • 10) Exhaust 0.75% H3PO4 using Millipore vacuum station • 11) Add 60 μl 0.75% H3PO4 to each well of MAPH filter plate • 12) Transfer 30 μl sample per well from assay plate to corresponding well of MAPH filter plate • 13) Incubate 30 min at room temperature • 14) Wash each well of MAPH filter plates 3× with 200 μl 0.75% H3PO4 using Millipore vacuum station • 15) Add 20 μl scintillation liquid to each well of MAPH filter plate • 16) Seal MAPH filter plate • 17) Store MAPH filter plate 30 min in darkness • 18) Quantify radioactivity using scintillation counter (MicroBeta, Perkin-Elmer)

HT-29 tumor cells = assay: Anti-proliferative activity, SRB assay; type: cell-based, human; conditions: Homo sapiens, HT-29, 72 h, 72 hours exposure, read-out: CELLULAR IC50 HT-29
Protocol: We observed the surprising finding that compounds of the invention were useful in inhibiting proliferation of HT-29 tumor cells (see Table 3).
3,000-15,000 cells/well were exposed to the test compounds at various concentrations appropriate to determine an IC50, for 72 hours, and cell proliferation was measured using the SRB assay according to Shekan et al (J Natl Cancer Inst (1990) 82, 1107-112) in order to estimate the IC50 values shown in Table 3. Briefly, cells were plated in 96 well dishes 24 hours prior to compound addition. The assay was terminated with the addition of cold TCA to a final concentration of 10% and the plates were incubated for one hour at 4° C. The plates were then washed 5 times with water and 100 μl of a Sulforhodamine B solution (4%) was added to each well. The plate was then incubated for 10 minutes at room temperature before removal of unbound dye by washing with 1% acetic acid. The bound dye was solubilized with 10 mM Trizma base and the absorbance read at OD570. Inhibitory activity of the compounds was calculated as % inhibition of cell proliferation compared to cells treated with the solvent (DMSO).

Sequence of B-Raf delta1-415 (P15056 416-766): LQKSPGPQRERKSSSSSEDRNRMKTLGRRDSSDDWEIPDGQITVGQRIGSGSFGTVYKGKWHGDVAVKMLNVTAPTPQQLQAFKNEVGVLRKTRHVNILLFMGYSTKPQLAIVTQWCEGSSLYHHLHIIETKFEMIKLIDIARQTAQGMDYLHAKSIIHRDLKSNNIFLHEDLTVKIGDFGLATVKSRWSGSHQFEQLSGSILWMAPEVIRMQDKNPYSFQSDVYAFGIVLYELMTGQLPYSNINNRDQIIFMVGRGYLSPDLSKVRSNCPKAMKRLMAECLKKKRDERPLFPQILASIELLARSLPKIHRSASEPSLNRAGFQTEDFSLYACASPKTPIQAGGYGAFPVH

| Structure (SMILES) | IC50 (B-Raf delta1-415) [nM] | IC50 (HT-29 tumor cells) [nM] |
| --- | --- | --- |
| COn1c(=O)c(-c2c(Cl)cccc2Cl)cc2cnc(Nc3ccc(N4CCOCC4)cc3)nc21 [Compound 98, 6-(2,6-Dichlorophenyl)-8-methoxy-2-(4-morpholinophenyl)-amino-pyrido[2,3-d]pyrimidin-7-one] | < 100 | < 1000 |
| COCCOn1c(=O)c(-c2c(Cl)cccc2Cl)cc2cnc(Nc3cc(C(=O)NCCN4CCCC4)n(C)c3)nc21 [Compound 99, 6-(2,6-Dichlorophenyl)-8-(2-methoxyethyl)oxy-2-(5-(2-pyrrolidinoethyl)aminocarbonyl-1-methyl-pyrrol-3-yl)-amino-pyrido[2,3-d]pyrimidin-7-one] | < 500 | < 1000 |
| COn1c(=O)c(-c2c(Cl)cccc2Cl)cc2cnc(Nc3ccc(CN4CCOCC4)cc3)nc21 [Compound 100, 6-(2,6-Dichlorophenyl)-8-methoxy-2-(4-morpholinomethylphenyl)-amino-pyrido[2,3-d]pyrimidin-7-one] | < 500 | < 1000 |
| COn1c(=O)c(-c2c(Cl)cccc2Cl)cc2cnc(Nc3ccc(CN4CCCC4)cc3)nc21 [Compound 101, 6-(2,6-Dichlorophenyl)-8-methoxy-2-(4-pyrrolidinomethylphenyl)-amino-pyrido[2,3-d]pyrimidin-7-one] | < 100 | < 1000 |
| COn1c(=O)c(-c2c(Cl)cccc2Cl)cc2cnc(NCCO)nc21 [Compound 102, 6-(2,6-Dichlorophenyl)-2-hydroxyethylamino-8-methoxy-pyrido[2,3-d]pyrimidin-7-one] | < 500 | < 10000 |
| Cn1cc(Nc2ncc3cc(-c4c(Cl)cccc4Cl)c(=O)n(OC[C@@H](O)CO)c3n2)cc1C(=O)NCCN1CCCC1 [Compound 103, 6-(2,6-Dichlorophenyl)-8-(2-(S)-2,3-dihydroxypropyl)oxy-2-(5-(2-pyrrolidinoethyl)aminocarbonyl-1-methyl-pyrrol-3-yl)-amino-pyrido[2,3-d]pyrimidin-7-one] | < 500 | < 1000 |
| COn1c(=O)c(-c2c(Cl)cccc2Cl)cc2cnc(Nc3ccc(Cn4cncn4)cc3)nc21 [Compound 104, 6-(2,6-Dichlorophenyl)-8-methoxy-2-(4-(1,2,4-triazol-1-yl)methylphenyl)-amino-pyrido[2,3-d]pyrimidin-7-one] | < 500 | < 1000 |
| COn1c(=O)c(-c2c(Cl)cccc2Cl)cc2cnc(Nc3ccc(N4CCCC4)cc3)nc21 [Compound 105, 6-(2,6-Dichlorophenyl)-8-methoxy-2-(4-pyrrolidinophenyl)-amino-pyrido[2,3-d]pyrimidin-7-one] | < 500 | < 10000 |
| COCCOn1c(=O)c(-c2cc(NC(=O)c3ccccc3)ccc2Cl)cc2cnc(Nc3ccc(N4CCN(C)CC4)cc3)nc21 [Compound 106, 6-(5-Benzoylamino-2-chloro-phenyl)-8-(2-methoxyethyl)oxy-2-(4-(4-methylpiperazino)-phenylamino)-pyrido[2,3-d]pyrimidin-7-one] | < 500 | < 1000 |
| COCCOn1c(=O)c(-c2cc(NC(=O)c3cccc(C(F)(F)F)c3)ccc2Cl)cc2cnc(Nc3ccc(N4CCN(C)CC4)cc3)nc21 [Compound 107, 8-(2-Methoxyethyl)oxy-2-(4-(4-methylpiperazino)-6-(5-(3-trifluoromethylbenzoyl)amino-2-chloro-phenyl)-phenylamino)-pyrido[2,3-d]pyrimidin-7-one] | < 100 | < 1000 |
| Cn1cc(Nc2ncc3cc(-c4c(Cl)cccc4Cl)c(=O)n(OC[C@H](O)CO)c3n2)cc1C(=O)NCCN1CCCC1 [Compound 108, 6-(2,6-Dichlorophenyl)-8-(2-(R)-2,3-dihydroxypropyl)oxy-2-(5-(2-pyrrolidinoethyl)aminocarbonyl-1-methyl-pyrrol-3-yl)-amino-pyrido[2,3-d]pyrimidin-7-one] | < 500 | < 1000 |
| COn1c(=O)c(-c2c(Cl)cccc2Cl)cc2cnc(NCCOC(=O)[C@@H](N)C(C)C)nc21 [Compound 109, 2-((2-(S)-2-Amino-3-methylbutanoyloxy)ethyl)-amino-6-(2,6-dichlorophenyl)-8-methoxy-pyrido[2,3-d]pyrimidin-7-one] | < 500 | < 10000 |
| COn1c(=O)c(-c2c(Cl)cccc2Cl)cc2cnc(Nc3ccc(N4CCCC4=O)cc3)nc21 [Compound 110, 6-(2,6-Dichlorophenyl)-8-methoxy-2-(4-(2-oxopyrrolidino)phenyl)-amino-pyrido[2,3-d]pyrimidin-7-one] | < 100 | < 1000 |
| COn1c(=O)c(-c2c(Cl)cccc2Cl)cc2cnc(Nc3ccc(NS(C)(=O)=O)cc3)nc21 [Compound 111, 6-(2,6-Dichlorophenyl)-8-methoxy-2-(4-methylsulfonylaminophenyl)-amino-pyrido[2,3-d]pyrimidin-7-one] | < 100 | < 1000 |
| COn1c(=O)c(-c2c(Cl)cccc2Cl)cc2cnc(Nc3cc(C(=O)NCCOC(=O)[C@@H](N)C(C)C)n(C)c3)nc21 [Compound 112, 2-(5-(2-(2-(S)-2-Amino-3-methylbutanoyloxy)ethyl)aminocarbonyl-1-methyl-pyrrol-3-yl)-amino-6-(2,6-dichlorophenyl)-8-methoxy-pyrido[2,3-d]pyrimidin-7-one] | < 500 | < 1000 |
| COn1c(=O)c(-c2c(Cl)cccc2Cl)cc2cnc(NC3CC3)nc21 [Compound 113, 2-Cyclopropylamino-6-(2,6-dichlorophenyl)-8-methoxy-pyrido[2,3-d]pyrimidin-7-one] | < 500 | < 10000 |
| COn1c(=O)c(-c2c(C)cccc2C)cc2cnc(Nc3cccnc3)nc21 [Compound 114, 6-(2,6-Dimethylphenyl)-8-methoxy-2-pyrid-3-ylamino-pyrido[2,3-d]pyrimidin-7-one] | < 100 | < 10000 |
| COn1c(=O)c(-c2c(Cl)cccc2Cl)cc2cnc(Nc3ccc(CC(=O)NCCN4CCCC4)cc3)nc21 [Compound 115, 6-(2,6-Dichlorophenyl)-8-methoxy-2-(4-(2-pyrrolidinoethylaminocarbon-ylmethyl)phenyl)-amino-pyrido[2,3-d]pyrimidin-7-one] | < 500 | < 1000 |
| COn1c(=O)c(-c2c(Cl)cccc2Cl)cc2cnc(Nc3cc(C(=O)N(C)CCO)n(C)c3)nc21 [Compound 116, 6-(2,6-Dichlorophenyl)-2-(5-(N-(2-hydroxyethyl)-N-methyl-amino)carbonyl-1-methyl-pyrrol-3-yl)-amino-8-methoxy-pyrido[2,3-d]pyrimidin-7-one] | < 100 | < 1000 |
| COn1c(=O)c(-c2c(Cl)cccc2Cl)cc2cnc(Nc3cc(C(=O)NC[C@@H](O)CO)n(C)c3)nc21 [Compound 117, 6-(2,6-Dichlorophenyl)-2-(5-(2-(R)-2,3-dihydroxyethylamino)carbonyl-1-methyl-pyrrol-3-yl)-amino-8-methoxy-pyrido[2,3-d]pyrimidin-7-one] | < 100 | < 10000 |
| COn1c(=O)c(-c2c(Cl)cccc2Cl)cc2cnc(Nc3cc(C(=O)NC[C@H](O)CO)n(C)c3)nc21 [Compound 118, 6-(2,6-Dichlorophenyl)-2-(5-(2-(S)-2,3-dihydroxyethylamino)carbonyl-1-methyl-pyrrol-3-yl)-amino-8-methoxy-pyrido[2,3-d]pyrimidin-7-one] | < 100 | < 10000 |
| COn1c(=O)c(-c2c(Cl)cccc2Cl)cc2cnc(Nc3cccc(NS(C)(=O)=O)c3)nc21 [Compound 119, 6-(2,6-Dichlorophenyl)-8-methoxy-2-(3-methylsulfonylaminophenyl)-amino-pyrido[2,3-d]pyrimidin-7-one] | < 100 | < 1000 |
